Legend:
Assay type in all cases: biochemical
KRAS G12D = biological target: T1, KRAS G12D (Homo sapiens, UniProt P01116, G12D); assay: HTRF nucleotide exchange assay (NEA), KRAS G12D; conditions: recombinant human KRAS aa1-188 G12D, 2 nM; 60 min compound incubation, EDA-GTP-DY647P1
T1 construct: aa1-188 KRAS WT, HRAS WT, NRAS WT, or KRAS containing the containing the G12D, G13D or Q61H amino acid substitutions
Method: (§1) HTRF Nucleotide Exchange Assay Method
(§2) The capacity of compounds to bind KRAS G12D, other KRAS mutants and wildtype RAS isoforms was quantified using a HTRF nucleotide exchange assay. Recombinant human RAS protein (2 nM; aa1-188 KRAS WT, HRAS WT, NRAS WT, or KRAS containing the containing the G12D, G13D or Q61H amino acid substitutions, or 4 nM KRAS; aa1-188 containing the G12V, G12C, G12A or G12S amino acid substitution, an N-terminal 6×His-tag and leader sequence), and 2 nM Europium-labeled anti-6×His antibody were mixed in assay buffer (10 mM HEPES pH7.3, 150 mM NaCl, 5 mM MgCl2, 0.05% BSA, 0.0025% NP-40 and 100 mM KF) with various concentrations of compound in a 384-well plate and a volume of 5 uL. After a 60-minute incubation at room temperature, Sul of 200 nM EDA-GTP-DY647P1 (diluted in assay buffer) was added to the plate. Following 30-minute incubation at room temperature, time-resolved fluorescence was measured on a PerkinElmer Envision plate reader. DMSO (0.3%) and unlabeled GDP (1 μM) or equivalent tool compound were used to generate the Max and Min assay signals, respectively. Data was analysed using a four-parameter logistic model to calculate IC50 values, with at least two independent replicates were performed for each compound.

KRAS WT = biological target: T2, KRAS WT (Homo sapiens, UniProt P01116); assay: HTRF nucleotide exchange assay (NEA), KRAS WT; conditions: recombinant human KRAS WT aa1-188, 2 nM; 60 min compound incubation, EDA-GTP-DY647P1
T2 construct: aa1-188 KRAS WT, HRAS WT, NRAS WT
T2 sequence (P01116 1-188 isoform P01116-2): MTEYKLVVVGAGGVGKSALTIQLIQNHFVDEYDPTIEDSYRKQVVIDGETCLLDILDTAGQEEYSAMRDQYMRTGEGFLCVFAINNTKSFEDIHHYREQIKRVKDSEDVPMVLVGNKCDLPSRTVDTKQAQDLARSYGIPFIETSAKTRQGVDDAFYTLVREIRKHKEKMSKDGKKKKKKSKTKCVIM
Method: as §1, §2

KRAS G12C = biological target: T3, KRAS G12C (Homo sapiens, UniProt P01116, G12C); assay: HTRF nucleotide exchange assay (NEA), KRAS G12C; conditions: recombinant human KRAS aa1-188 G12C, 4 nM; 60 min compound incubation, EDA-GTP-DY647P1
T3 construct: 4 nM KRAS; aa1-188 containing the G12V, G12C, G12A or G12S amino acid substitution
T3 sequence (P01116 1-188 isoform P01116-2 G12C): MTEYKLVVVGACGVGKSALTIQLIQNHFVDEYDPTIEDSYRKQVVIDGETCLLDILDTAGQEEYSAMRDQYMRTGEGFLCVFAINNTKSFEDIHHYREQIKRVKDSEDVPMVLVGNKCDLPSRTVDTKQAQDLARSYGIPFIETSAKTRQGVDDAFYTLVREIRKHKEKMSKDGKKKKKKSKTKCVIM
Method: as §1, §2

KRAS G12V = biological target: T4, KRAS G12V (Homo sapiens, UniProt P01116, G12V); assay: HTRF nucleotide exchange assay (NEA), KRAS G12V; conditions: recombinant human KRAS aa1-188 G12V, 4 nM; 60 min compound incubation, EDA-GTP-DY647P1
T4 construct: 4 nM KRAS; aa1-188 containing the G12V, G12C, G12A or G12S amino acid substitution
T4 sequence (P01116 1-188 isoform P01116-2 G12V): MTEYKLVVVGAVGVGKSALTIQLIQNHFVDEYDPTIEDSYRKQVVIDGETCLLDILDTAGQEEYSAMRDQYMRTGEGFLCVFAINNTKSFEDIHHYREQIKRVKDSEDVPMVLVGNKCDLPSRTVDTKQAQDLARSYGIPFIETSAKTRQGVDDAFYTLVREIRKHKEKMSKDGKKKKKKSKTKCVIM
Method: as §1, §2

KRAS G12S = biological target: T5, KRAS G12S (Homo sapiens, UniProt P01116, G12S); assay: HTRF nucleotide exchange assay (NEA), KRAS G12S; conditions: recombinant human KRAS aa1-188 G12S, 4 nM; 60 min compound incubation, EDA-GTP-DY647P1
T5 construct: 4 nM KRAS; aa1-188 containing the G12V, G12C, G12A or G12S amino acid substitution
T5 sequence (P01116 1-188 isoform P01116-2 G12S): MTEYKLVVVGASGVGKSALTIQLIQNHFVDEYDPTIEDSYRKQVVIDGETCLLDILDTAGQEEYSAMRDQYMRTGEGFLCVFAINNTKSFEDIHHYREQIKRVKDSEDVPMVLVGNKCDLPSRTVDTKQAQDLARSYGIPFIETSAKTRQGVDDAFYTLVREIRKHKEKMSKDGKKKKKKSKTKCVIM
Method: as §1, §2

KRAS G12A = biological target: T6, KRAS G12A (Homo sapiens, UniProt P01116, G12A); assay: HTRF nucleotide exchange assay (NEA), KRAS G12A; conditions: recombinant human KRAS aa1-188 G12A, 4 nM; 60 min compound incubation, EDA-GTP-DY647P1
T6 construct: 4 nM KRAS; aa1-188 containing the G12V, G12C, G12A or G12S amino acid substitution
T6 sequence (P01116 1-188 isoform P01116-2 G12A): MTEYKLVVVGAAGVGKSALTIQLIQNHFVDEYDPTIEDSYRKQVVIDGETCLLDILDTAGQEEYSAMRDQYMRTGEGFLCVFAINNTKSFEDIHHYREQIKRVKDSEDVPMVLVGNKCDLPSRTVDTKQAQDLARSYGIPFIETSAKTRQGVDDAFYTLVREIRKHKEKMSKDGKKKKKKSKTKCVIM
Method: as §1, §2

KRAS G13D = biological target: T7, KRAS G13D (Homo sapiens, UniProt P01116, G13D); assay: HTRF nucleotide exchange assay (NEA), KRAS G13D; conditions: 1 h; recombinant human KRAS aa1-188 G13D, 2 nM; 60 min compound incubation, EDA-GTP-DY647P1
T7 construct: aa1-188 KRAS WT, HRAS WT, NRAS WT, or KRAS containing the containing the G12D, G13D or Q61H amino acid substitutions
T7 sequence (P01116 1-188 isoform P01116-2 G13D): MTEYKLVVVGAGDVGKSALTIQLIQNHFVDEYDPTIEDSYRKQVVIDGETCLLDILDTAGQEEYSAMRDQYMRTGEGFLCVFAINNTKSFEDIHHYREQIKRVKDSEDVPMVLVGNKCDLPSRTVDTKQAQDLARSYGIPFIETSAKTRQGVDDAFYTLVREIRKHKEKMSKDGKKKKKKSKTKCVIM
Method: as §1
The capacity of compounds to bind KRAS G12D, other KRAS mutants and wildtype RAS isoforms was quantified using a HTRF nucleotide exchange assay. […] After a 60-minute incubation at room temperature, Sul of 200 nM EDA-GTP-DY647P1 (diluted in assay buffer) was added to the plate. Following 30-minute incubation at room temperature, time-resolved fluorescence was measured on a PerkinElmer Envision plate reader. DMSO (0.3%) and unlabeled GDP (1 μM) or equivalent tool compound were used to generate the Max and Min assay signals, respectively. Data was analysed using a four-parameter logistic model to calculate IC50 values, with at least two independent replicates were performed for each compound.

KRAS Q61H = biological target: T8, KRAS Q61H (Homo sapiens, UniProt P01116, Q61H); assay: HTRF nucleotide exchange assay (NEA), KRAS Q61H; conditions: recombinant human KRAS aa1-188 Q61H, 2 nM; 60 min compound incubation, EDA-GTP-DY647P1
T8 construct: aa1-188 KRAS WT, HRAS WT, NRAS WT, or KRAS containing the containing the G12D, G13D or Q61H amino acid substitutions
T8 sequence (P01116 1-188 isoform P01116-2 Q61H): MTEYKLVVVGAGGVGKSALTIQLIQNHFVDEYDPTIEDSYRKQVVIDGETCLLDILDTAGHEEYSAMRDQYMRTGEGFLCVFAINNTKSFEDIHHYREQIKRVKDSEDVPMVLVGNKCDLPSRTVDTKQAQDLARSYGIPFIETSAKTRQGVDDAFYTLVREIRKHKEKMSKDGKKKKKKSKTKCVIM
Method: as §1, §2

T1 sequence (P01116 1-188 isoform P01116-2 G12D): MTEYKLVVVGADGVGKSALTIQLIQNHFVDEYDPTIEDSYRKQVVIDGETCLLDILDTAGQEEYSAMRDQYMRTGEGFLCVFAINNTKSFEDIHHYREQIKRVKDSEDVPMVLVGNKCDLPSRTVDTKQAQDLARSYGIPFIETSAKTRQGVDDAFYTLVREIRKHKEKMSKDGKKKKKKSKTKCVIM

| SMILES | IC50 (KRAS G12D) | IC50 (KRAS WT) | IC50 (KRAS G12C) | IC50 (KRAS G12V) | IC50 (KRAS G12S) | IC50 (KRAS G12A) | inhibition at 10 µM (KRAS G13D) | IC50 (KRAS Q61H) |
| --- | --- | --- | --- | --- | --- | --- | --- | --- |
| C#Cc1c(F)ccc2cc(O)cc(-c3ccc4c(N5CCCOCC5)nc(OC[C@@]56CCCN5C[C@H](F)C6)nc4c3C)c12 (racemic) [Example 6, rac-5-ethynyl-6-fluoro-4-[2-[[(2R,8S)-2-fluoro-1,2,3,5,6,7-hexahydropyrrolizin-8-yl]methoxy]-8-methyl-4-(1,4-oxazepan-4-yl)quinazolin-7-yl]naphthalen-2-ol] | < 10 nM | < 10 nM | < 10 nM | < 10 nM | < 10 nM | < 10 nM | 10 to 49% | < 10 nM |
| C#Cc1c(F)ccc2cc(O)cc(-c3ccc4c(N5CCCNC(=O)C5)nc(OC[C@@]56CCCN5C[C@H](F)C6)nc4c3C)c12 (racemic) [Example 24, 4-[7-(8-ethynyl-7-fluoro-3-hydroxy-1-naphthyl)-2-[[rac-(2R,8S)-2-fluoro-1,2,3,5,6,7-hexahydropyrrolizin-8-yl]methoxy]-8-methyl-quinazolin-4-yl]-1,4-diazepan-2-one] | < 10 nM | < 10 nM | < 10 nM | < 10 nM | 10 to 100 nM | < 10 nM |  | 10 to 100 nM |
| C#Cc1c(F)ccc2cc(O)cc(-c3ccc4c(N5CCCOCC5)nc(OC[C@@]56CCCN5C[C@H](F)C6)nc4c3F)c12 (racemic) [Example 26, 5-ethynyl-6-fluoro-4-[8-fluoro-4-(1,4-oxazepan-4-yl)-2-[[rac-(2R,8S)-2-fluoro-1,2,3,5,6,7-hexahydropyrrolizin-8-yl]methoxy]quinazolin-7-yl]naphthalen-2-ol] | < 10 nM | < 10 nM | < 10 nM | < 10 nM | < 10 nM | < 10 nM |  |  |
| Cc1c(-c2cc(O)cc3ccccc23)ccc2c(N3CCCOCC3)nc(OCC34CCCN3CCC4)nc12 [Example 2, 4-[2-(1,2,3,5,6,7-hexahydropyrrolizin-8-ylmethoxy)-8-methyl-4-(1,4-oxazepan-4-yl)quinazolin-7-yl]naphthalen-2-ol] | 100 to 10000 nM | 100 to 10000 nM | 100 to 10000 nM | 100 to 10000 nM |  |  | 10 to 49% | 100 to 10000 nM |
| Cc1c(-c2cccc3sc(N)c(C#N)c23)ccc2c(N3CCCOCC3)nc(OCC34CCCN3CCC4)nc12 [Example 22, 2-amino-4-[2-(1,2,3,5,6,7-hexahydropyrrolizin-8-ylmethoxy)-8-methyl-4-(1,4-oxazepan-4-yl)quinazolin-7-yl]benzothiophene-3-carbonitrile] | 10 to 100 nM | 10 to 100 nM | < 10 nM | < 10 nM | 100 to 10000 nM | 10 to 100 nM |  | 10 to 100 nM |
| Oc1cc(-c2ccc3c(N4CCCOCC4)nc(OCC45CCCN4CCC5)nc3c2F)c2ccccc2c1 [Example 25, 4-[8-fluoro-2-(1,2,3,5,6,7-hexahydropyrrolizin-8-ylmethoxy)-4-(1,4-oxazepan-4-yl)quinazolin-7-yl]naphthalen-2-ol] | 10 to 100 nM | 10 to 100 nM | 10 to 100 nM | 10 to 100 nM | 100 to 10000 nM | 10 to 100 nM | 10 to 49% | 100 to 10000 nM |
| N#Cc1cc2c(N3CCCOCC3)nc(OCC34CCCN3CCC4)nc2c(F)c1-c1cc(O)cc2ccccc12 [Example 27, 8-fluoro-2-(1,2,3,5,6,7-hexahydropyrrolizin-8-ylmethoxy)-7-(3-hydroxy-1-naphthyl)-4-(1,4-oxazepan-4-yl)quinazoline-6-carbonitrile] | 10 to 100 nM | 10 to 100 nM | 10 to 100 nM | 10 to 100 nM | 100 to 10000 nM | 100 to 10000 nM |  |  |
